Results on six molecules are retold here after article PMC5023777 (British Journal of Cancer, 2016).

By IC50 is commonly meant the concentration that gives 50% inhibition.

Where only a bound is given, the exact number is not on record here.

The subject of data set [1] is HCT116 cells. The data set is described as follows: Cell cycle phase analysis by flow cytometry, HCT116. The note with it: GI50 concentration (100 μM for 6 and 3), 24 h, asynchronous cultures. (In general: A flow cytometer gives signals particle by particle.)
Data set [2] relates to HCT116 cells. The data set is described as follows: Clonogenic survival assay, HCT116. To be noted: 10 μM, 72 h exposure. The format is cell-based, human.
For data set [3], the target named is mTOR (Homo sapiens, UniProt P42345). The data set can be described thus: mTOR kinase TR-FRET assay. The class given is biochemical.
mTOR, sequence (P42345 1360-2549 limits assumed): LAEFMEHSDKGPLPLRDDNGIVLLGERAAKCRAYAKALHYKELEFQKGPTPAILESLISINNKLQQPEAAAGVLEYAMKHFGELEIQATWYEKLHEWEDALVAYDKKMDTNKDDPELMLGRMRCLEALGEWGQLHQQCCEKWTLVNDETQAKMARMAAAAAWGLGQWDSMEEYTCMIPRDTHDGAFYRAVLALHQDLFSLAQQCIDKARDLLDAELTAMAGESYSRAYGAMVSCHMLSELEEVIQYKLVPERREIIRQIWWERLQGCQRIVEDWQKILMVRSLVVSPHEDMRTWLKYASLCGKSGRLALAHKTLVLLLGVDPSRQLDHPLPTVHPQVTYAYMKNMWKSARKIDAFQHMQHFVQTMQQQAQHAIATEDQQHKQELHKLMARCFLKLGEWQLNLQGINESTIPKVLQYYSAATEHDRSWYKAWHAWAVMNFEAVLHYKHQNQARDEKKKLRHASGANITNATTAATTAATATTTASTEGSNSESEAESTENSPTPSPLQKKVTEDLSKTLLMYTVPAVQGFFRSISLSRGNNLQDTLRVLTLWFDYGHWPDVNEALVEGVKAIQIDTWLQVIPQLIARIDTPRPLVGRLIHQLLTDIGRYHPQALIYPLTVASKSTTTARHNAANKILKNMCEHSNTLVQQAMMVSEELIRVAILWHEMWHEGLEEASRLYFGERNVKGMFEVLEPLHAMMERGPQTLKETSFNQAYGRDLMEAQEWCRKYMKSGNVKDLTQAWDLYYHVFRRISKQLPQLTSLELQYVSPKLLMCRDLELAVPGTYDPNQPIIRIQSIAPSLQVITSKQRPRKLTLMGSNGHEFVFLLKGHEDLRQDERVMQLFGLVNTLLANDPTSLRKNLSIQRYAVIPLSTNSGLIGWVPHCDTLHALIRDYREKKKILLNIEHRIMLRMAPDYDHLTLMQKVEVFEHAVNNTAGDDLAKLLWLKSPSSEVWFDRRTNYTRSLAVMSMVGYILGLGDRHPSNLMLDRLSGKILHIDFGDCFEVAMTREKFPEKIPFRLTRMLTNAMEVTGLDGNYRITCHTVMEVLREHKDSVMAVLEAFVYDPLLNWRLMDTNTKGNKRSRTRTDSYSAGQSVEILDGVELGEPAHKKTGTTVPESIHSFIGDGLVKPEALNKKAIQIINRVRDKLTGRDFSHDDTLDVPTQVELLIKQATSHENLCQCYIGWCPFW
The subject of data set [4] is HCT116 cells. The data set is described as follows: SRB cell growth inhibition assay, HCT116. To be noted: HCT116 and HT29 cells, SRB GI50. The class given is cell-based, human.
Data set [5] has as its target CDK2 (Homo sapiens, UniProt P24941). The data set is described as follows: CDK2 purified kinase assay. The format is biochemical.

On to `Cn1c(=O)n(-c2ccc(C(C)(C)C#N)cc2)c2c3cc(-c4cnc5ccccc5c4)ccc3ncc21` [Dactolisib (NVP-BEZ235)], for which the “effect on cell cycle phase distribution, HCT116” value (“effect” for short) in data set [1] is “caused a G1 arrest”.
Consider `NS(=O)(=O)c1ccc(Nc2nc(OCC3CCCCC3)c3nc[nH]c3n2)cc1` [NU6102, 4-[[6-(cyclohexylmethoxy)-9H-purin-2-yl]amino]-benzenesulfonamide], for which, in data set [2], the “cytotoxicity (clonogenic), HCT116” value is listed as “cytotoxic as a single agent”.
In data set [3], `CCC(C)Oc1nc(N)nc(N)c1C#N` (stereo not shown) [Compound 7, 2,6-Diamino-4-sec-butoxypyrimidine-5-carbonitrile] yielded a half-maximal inhibitory concentration (IC50) greater than 20 µM. In data set [4], the “fold less potent at inhibiting cell growth than 1, 2 and 5” value is reported as 5–10 fold.
In data set [3], `Nc1nc(N)c(N=O)c(OCC2CCCCC2)n1` [Compound 2] gave a half-maximal inhibitory concentration (IC50) of 19 µM. The “effect” value in data set [1] is “greater G1 phase accumulation than rapamycin or dactolisib”.
On to `Nc1nc(N)c(N=O)c(OCc2ccc(Cl)cc2)n1` [Compound 8, 6-(4-Chlorobenzyloxy)-5-nitrosopyrimidine-2,4-diamine], for which, in data set [3], the 50% inhibitory concentration (IC50) was 4.9 µM. For the same molecule, the “inhibition of CDK2 (in words)” value in data set [5] is given as “did not inhibit CDK2”. For the same molecule, the “fold less potent at inhibiting cell growth than 1, 2 and 5” value in data set [4] is reported as 5–10 fold.
With `CO[C@H]1C[C@@H]2CC[C@@H](C)[C@@](O)(O2)C(=O)C(=O)N2CCCC[C@H]2C(=O)O[C@H]([C@H](C)C[C@@H]2CC[C@@H](O)[C@H](OC)C2)CC(=O)[C@H](C)/C=C(\C)[C@@H](O)[C@@H](OC)C(=O)[C@H](C)C[C@H](C)/C=C/C=C/C=C/1C` [Rapamycin], the “effect” value in data set [1] is given as “caused a G1 arrest”.
